The values that follow come from patent US20050197350A1, “Novel quinoline, tetrahydroquinazoline, and pyrimidine derivatives and methods of treatment related to the use thereof” (TAISHO PHARMACEUTICAL CO., LTD., priority 2003, published 2005).

The test relates to MCH receptors. The test is described as follows: MCH receptor activity class (method not given).
Where [1] appears, read: class by percent of control at 10^-7 M or IC50.
Where [2] appears, read: MCH receptor activity class 1-3 (percent of control at 10^-7 M or IC50).
The mark [3] stands for this setting: MCH receptor, class by percent of control at 10^-7 M or IC50.
[4] abbreviates: class by percent of control at 10^−7 M or IC50.

SMILES strings stand for the structures. Where two headings read alike, the source gives them in different places.

For `CN(C)c1cc(N[C@H]2CC[C@@H](NC(=O)CCCc3ccc([N+](=O)[O-])cc3)CC2)nc2ccccc12` [compound 725], the class under setting [1] is given as 3 (Class 3 The value of percent of control at 10^−7 M was more than 60% or the value of IC50 was more than 200 nM.).
On the same count and under the same terms, next, `CN(C)c1ccnc(N[C@H]2CC[C@@H](NC(=O)c3cccc(C(F)(F)F)c3F)CC2)n1` [compound 282]: 3 (Class 3 The value of percent of control at 10^−7 M was more than 60% or the value of IC50 was more than 200 nM.).
As for `CCCc1ccccc1NC(=O)NC[C@H]1CC[C@@H](Nc2nccc(N(C)C)n2)CC1` [compound 2428, N-[(cis-4-{[4-(dimethylamino)pyrimidin-2-yl]amino}cyclohexyl)methyl]-N′-(2-propylphenyl)urea], under setting [2], the class is 2 (Class 2: The value of percent of control at 10^−7 M was from 40% to 60% or the value of IC′50 was from 50 nM to 200 nM.).
With `CN(C)c1nc(N[C@H]2CC[C@@H](NCc3cccc4ccccc34)CC2)nc2c1CCCC2` [compound 1361], under setting [1], the class is recorded as 3 (Class 3 The value of percent of control at 10^−7 M was more than 60% or the value of IC50 was more than 200 nM.).
Regarding `CN(C)c1nc(N[C@H]2CC[C@@H](CNCc3cc(C(F)(F)F)cc(Cl)c3F)CC2)nc2c1CCCC2` [compound 1439], the class under setting [1] is on record as 3 (Class 3 The value of percent of control at 10^−7 M was more than 60% or the value of IC50 was more than 200 nM.).
Take `CN(C)c1cc(N[C@H]2CC[C@@H](NC(=O)c3ccc([N+](=O)[O-])cc3Cl)CC2)nc2ccccc12` [compound 102]: the class under setting [3] is listed as 3 (Class 3 The value of percent of control at 10^−7 M was more than 60% or the value of IC50 was more than 200 nM.).
Take `COc1cc(CNC(=O)[C@H]2CC[C@@H](Nc3nc(C)cc(N(C)C)n3)CC2)cc(OC)c1` [Example 2576, cis-N-(3,5-dimethoxybenzyl)-4-{[4-(dimethylamino)-6-methylpyrimidin-2-yl]amino}cyclohexanecarboxamide]: the class is recorded as 1.
Take `Cc1ccc(CNC(=O)[C@H]2CC[C@@H](Nc3nc(C)cc(N(C)C)n3)CC2)cc1` [compound 2809, cis-4-{[4-(dimethylamino)-6-methylpyrimidin-2-yl]amino}-N-(4-methylbenzyl)cyclohexanecarboxamide]: the class under setting [4] is 1 (Class 1: The value of percent of control at 10^−7 M was less than 40% or the value of IC50 was less than 50 nM.).
On to `CN(C)c1nc(N[C@H]2CC[C@@H](NC(=S)Nc3ccc(C(F)(F)F)cc3)CC2)nc2c1CCCC2` [compound 1989], for which, under setting [3], the class is 3 (Class 3 The value of percent of control at 10^−7 M was more than 60% or the value of IC50 was more than 200 nM.).
For `Cc1ccc(C(=O)N[C@H]2CC[C@@H](CNc3ncc(C)c(N(C)C)n3)CC2)cc1` [compound 2713], the class under setting [4] is listed as 3 (Class 3 The value of percent of control at 10^−7 M was more than 60% or the value of IC50 was more than 200 nM.).
Regarding `Cc1cc(N[C@H]2CC[C@@H](NC(=O)c3ccc(F)cc3)CC2)nc2ccccc12` [Example 2545, 4-fluoro-N-{cis-4-[(4-methylquinolin-2-yl)amino]cyclohexyl}benzamide], the class came to 1.
Turning to `CN(C)c1nc(N[C@H]2CC[C@@H](CNC(=O)Nc3c(Cl)cc(Cl)cc3Cl)CC2)nc2c1CCCC2` [compound 2461], under setting [2], the class is given as 1 (Class 1: The value of percent of control at 10^−7 M was less than 40% or the value of IC50 was less than 50 nM.).
Take `CN(C)c1nc(N[C@H]2CC[C@@H](CNC(=O)CC3CCCC3)CC2)nc2c1CCCC2` [compound 637]: under setting [1], the class was 3 (Class 3 The value of percent of control at 10^−7 M was more than 60% or the value of IC50 was more than 200 nM.).
Turning to `Cc1cccc(C(=O)NC[C@H]2CC[C@@H](Nc3cc(N(C)C)c4ccccc4n3)CC2)c1C` [compound 237], the class under setting [1] was 3 (Class 3 The value of percent of control at 10^−7 M was more than 60% or the value of IC50 was more than 200 nM.).
For the molecule `Cc1cc(N(C)C)nc(N[C@H]2CC[C@@H](C(=O)NCc3ccc(Br)cc3F)CC2)n1` [compound 2821, cis-N-(4-bromo-2-fluorobenzyl)-4-{[4-(dimethylamino)-6-methylpyrimidin-2-yl]amino}cyclohexanecarboxamide], the class under setting [4] is listed as 1 (Class 1: The value of percent of control at 10^−7 M was less than 40% or the value of IC50 was less than 50 nM.).
As for `CN(C)c1nc(N[C@H]2CC[C@@H](NC(=S)NCc3ccccc3)CC2)nc2c1CCCC2` [compound 1928], under setting [3], the class was 3 (Class 3 The value of percent of control at 10^−7 M was more than 60% or the value of IC50 was more than 200 nM.).
For `CCOC(=O)c1ccccc1NC(=O)N[C@H]1CC[C@@H](Nc2nc3c(c(N(C)C)n2)CCCC3)CC1` [compound 1857], the class under setting [1] is listed as 3 (Class 3 The value of percent of control at 10^−7 M was more than 60% or the value of IC50 was more than 200 nM.).
On to `Cc1cc(C(=O)NC[C@H]2CC[C@@H](Nc3nccc(N(C)C)n3)CC2)ccc1F` [compound 426], for which, for the setting “class 1-3 by percent of control at 10^-7 M or IC50”, the class is 3 (Class 3 The value of percent of control at 10^−7 M was more than 60% or the value of IC50 was more than 200 nM.).
In the case of `CN(C)c1nc(N[C@H]2CC[C@@H](CNC(=O)c3ccc(F)cc3Cl)CC2)nc2c1CCCC2` [compound 623], the class under setting [1] is on record as 3 (Class 3 The value of percent of control at 10^−7 M was more than 60% or the value of IC50 was more than 200 nM.).
For `CN(C)c1cc(N[C@H]2CC[C@@H](CNC(=O)Cc3ccc(Cl)cc3)CC2)nc2ccccc12` [compound 155], the class under setting [3] was 3 (Class 3 The value of percent of control at 10^−7 M was more than 60% or the value of IC50 was more than 200 nM.).
In the case of `CN(C)c1nc(N[C@H]2CC[C@@H](CNC(=O)c3ccc(Br)s3)CC2)nc2c1CCCC2` [compound 1061], the class (activity class per percent of control at 10^-7 M or IC50) is on record as 3 (Class 3 The value of percent of control at 10^−7 M was more than 60% or the value of IC50 was more than 200 nM.).
`COc1ccc(CNC(=S)N[C@H]2CC[C@@H](Nc3nc4c(c(N(C)C)n3)CCCC4)CC2)cc1` [compound 2018]: the class under setting [3] is given as 3 (Class 3 The value of percent of control at 10^−7 M was more than 60% or the value of IC50 was more than 200 nM.).
For `Cc1nc(N[C@H]2CC[C@@H](NC(=O)c3ccc(Br)cc3)CC2)nc(N(C)C)c1C` [compound 2849, 4-bromo-N-(cis-4-{[4-(dimethylamino)-5,6-dimethylpyrimidin-2-yl]amino}cyclohexyl)benzamide], the class under setting [4] is recorded as 1 (Class 1: The value of percent of control at 10^−7 M was less than 40% or the value of IC50 was less than 50 nM.).
With `COc1cc(Br)cc(CNC[C@H]2CC[C@@H](Nc3nccc(N(C)C)n3)CC2)c1O` [compound 1250], the class under setting [1] was 1 (Class 1: The value of percent of control at 10^−7 M was less than 40% or the value of IC50 was less than 50 nM.).
For `CCOc1cc(CNC[C@H]2CC[C@@H](Nc3nccc(N(C)C)n3)CC2)ccc1OC` [compound 1255], the class under setting [1] was 1 (Class 1: The value of percent of control at 10^−7 M was less than 40% or the value of IC50 was less than 50 nM.).
Consider `Cc1cccc(Cl)c1NC(=O)N[C@H]1CC[C@@H](Nc2nc3c(c(N(C)C)n2)CCCC3)CC1` [compound 1674], for which the class (activity class 1-3: percent of control at 10^-7 M or IC50) is 3 (Class 3 The value of percent of control at 10^−7 M was more than 60% or the value of IC50 was more than 200 nM.).
Turning to `COc1cc(OC)cc(C(=O)N[C@H]2CC[C@@H](Nc3ncc(C)c(N(C)C)n3)CC2)c1` [compound 2900, N-(cis-4-{[4-(dimethylamino)-5-methylpyrimidin-2-yl]amino}cyclohexyl)-3,5-dimethoxybenzamide], under setting [4], the class is given as 1 (Class 1: The value of percent of control at 10^−7 M was less than 40% or the value of IC50 was less than 50 nM.).
With `Cc1cc(N(C)C)nc(N[C@H]2CC[C@@H](C(=O)NCc3cc(Cl)cc(Cl)c3)CC2)n1` [Example 2575, cis-N-(3,5-dichlorobenzyl)-4-{[4-(dimethylamino)-6-methylpyrimidin-2-yl]amino}cyclohexanecarboxamide], the class is recorded as 1.
Take `CN(C)c1nc(N[C@H]2CC[C@@H](NC(=S)NCCCc3ccccc3)CC2)nc2c1CCCC2` [compound 2011]: under setting [3], the class is reported as 3 (Class 3 The value of percent of control at 10^−7 M was more than 60% or the value of IC50 was more than 200 nM.).
With `CN(C)c1nc(N[C@H]2CC[C@@H](NC(=S)Nc3ccc4c(c3)OCO4)CC2)nc2c1CCCC2` [compound 1785], under setting [1], the class is reported as 3 (Class 3 The value of percent of control at 10^−7 M was more than 60% or the value of IC50 was more than 200 nM.).
In the case of `Cc1cc(N(C)C)nc(N[C@H]2CC[C@@H](NC(=O)c3ccc(F)c(C)c3)CC2)n1` [compound 2964, N-(cis-4-{[4-(dimethylamino)-6-methylpyrimidin-2-yl]amino}cyclohexyl)-4-fluoro-3-methylbenzamide], the class under setting [4] is 1 (Class 1: The value of percent of control at 10^−7 M was less than 40% or the value of IC50 was less than 50 nM.).
On to `Cc1cnc(N[C@H]2CC[C@@H](NC(=O)c3cc(F)cc(C(F)(F)F)c3)CC2)nc1N(C)C` [compound 2930, N-(cis-4-{[4-(dimethylamino)-5-methylpyrimidin-2-yl]amino}cyclohexyl)-3-fluoro-5-(trifluoromethyl)benzamide], for which the class under setting [4] is given as 1 (Class 1: The value of percent of control at 10^−7 M was less than 40% or the value of IC50 was less than 50 nM.).
Turning to `CN(C)c1ccnc(N[C@H]2CC[C@@H](NC(=S)NCc3cccc(Cl)c3)CC2)n1` [compound 2337], the class under setting [2] is listed as 3 (Class 3 The value of percent of control at 10^−7 M was more than 60% or the value of IC50 was more than 200 nM.).
`Cc1cnc(N[C@H]2CC[C@@H](NC(=O)c3ccc4c(c3)OC(F)(F)O4)CC2)nc1N(C)C` [compound 2926, N-(cis-4-{[4-(dimethylamino)-5-methylpyrimidin-2-yl]amino}cyclohexyl)-2,2-difluoro-1,3-benzodioxole-5-carboxamide]: the class under setting [4] is on record as 1 (Class 1: The value of percent of control at 10^−7 M was less than 40% or the value of IC50 was less than 50 nM.).
